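Five compound concentrations were applied to cells in 96-well plates for 48 hours; endpoints were derived by simple linear interpolation of the resulting dose-response curve. Abbreviation: GI50, concentration required for 50% inhibition of growth.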 Calls of active or inactive are those of the source. Rule as the data show it: active = GI50 up to about 1.1 µM and inactive = higher.
Tests used:
Experiment in all cases: growth of human tumour cells (NCI), 48 h
HOP-62 = system: HOP-62
RPMI-8226 = system: RPMI-8226
SK-MEL-2 = system: SK-MEL-2
SNB-75 = system: SNB-75
HCT-116 = system: HCT-116
UO-31 = system: UO-31
LOX IMVI = system: LOX IMVI
RXF 393 = system: RXF 393
HOP-92 = system: HOP-92
SK-MEL-28 = system: SK-MEL-28
HL-60 = system: HL-60
OVCAR-4 = system: OVCAR-4
NCI-H460 = system: NCI-H460
SN12C = system: SN12C
SF-268 = system: SF-268
SR = system: SR
NCI-H522 = system: NCI-H522

Row | SMILES | GI50 (HOP-62) | GI50 (RPMI-8226) | GI50 (SK-MEL-2) | GI50 (SNB-75) | GI50 (HCT-116) | GI50 (UO-31) | GI50 (LOX IMVI) | GI50 (RXF 393) | GI50 (HOP-92) | GI50 (SK-MEL-28) | GI50 (HL-60) | GI50 (OVCAR-4) | GI50 (NCI-H460) | GI50 (SN12C) | GI50 (SF-268) | GI50 (SR) | GI50 (NCI-H522)
1 | CCOC(=O)[C@@]12C(C)=CC(=O)O[C@]1(C)C1C(=O)NC(=O)C12 (some centres not stated) | > 100 µM (inactive) | > 100 µM (inactive) | > 100 µM (inactive) | 85.1 µM (inactive) | > 100 µM (inactive) | > 100 µM (inactive) | > 100 µM (inactive) | > 100 µM (inactive) | 22.1 µM (inactive) | > 100 µM (inactive) | > 100 µM (inactive) | > 100 µM (inactive) | > 100 µM (inactive) | – | – | – | –
2 | O=[N+]([O-])c1ccccc1C1N2CCCCC2[C@@H]2c3[nH]c4ccccc4c3CCN12 (some centres not stated) | 14.8 µM (inactive) | 10.9 µM (inactive) | 13.6 µM (inactive) | – | – | 11.3 µM (inactive) | – | 12.6 µM (inactive) | 15.1 µM (inactive) | 13.7 µM (inactive) | 3.7 µM (inactive) | 17.3 µM (inactive) | 17.7 µM (inactive) | 13.6 µM (inactive) | 11.6 µM (inactive) | – | –
3 | CC(=O)c1ccc(NC(=O)/C(Cc2ccccn2)=N/NC(=O)C[N+](C)(C)C)cc1 | > 100 µM (inactive) | > 100 µM (inactive) | > 100 µM (inactive) | > 100 µM (inactive) | > 100 µM (inactive) | > 100 µM (inactive) | > 100 µM (inactive) | > 100 µM (inactive) | – | > 100 µM (inactive) | > 100 µM (inactive) | > 100 µM (inactive) | > 100 µM (inactive) | > 100 µM (inactive) | > 100 µM (inactive) | > 100 µM (inactive) | > 100 µM (inactive)
4 | O=[N+]([O-])c1cccc(C(O)/C(=N/Nc2ccccc2)C2Nc3ccc([N+](=O)[O-])cc3N=C2O)c1 (configuration not stated) | > 100 µM (inactive) | 43 µM (inactive) | > 100 µM (inactive) | 74 µM (inactive) | > 100 µM (inactive) | 27.5 µM (inactive) | > 100 µM (inactive) | > 100 µM (inactive) | > 100 µM (inactive) | > 100 µM (inactive) | 10.8 µM (inactive) | 78.5 µM (inactive) | 42.9 µM (inactive) | > 100 µM (inactive) | 93.5 µM (inactive) | – | 19.7 µM (inactive)
5 | COc1cccc(-c2nc(-c3cnccn3)n(C/C=C/c3ccccc3)n2)c1 | – | – | > 10 µM (inactive) | 6.32 µM (inactive) | – | > 10 µM (inactive) | > 10 µM (inactive) | – | 1.86 µM (inactive) | – | – | > 10 µM (inactive) | > 10 µM (inactive) | > 10 µM (inactive) | > 10 µM (inactive) | > 10 µM (inactive) | > 10 µM (inactive)
6 | Clc1ccc(Cc2nc3ccccc3s2)c(Cl)c1 | 18.3 µM (inactive) | 17.7 µM (inactive) | 16.4 µM (inactive) | 14.7 µM (inactive) | – | 16.4 µM (inactive) | 16.7 µM (inactive) | 20.9 µM (inactive) | – | 18.3 µM (inactive) | 15.5 µM (inactive) | 13.2 µM (inactive) | 19.8 µM (inactive) | 16.5 µM (inactive) | 15.7 µM (inactive) | – | 15.7 µM (inactive)
7 | COC(=O)CCC(=O)C(C#N)c1ccc(Cl)cc1Cl (configuration not stated) | – | > 100 µM (inactive) | > 100 µM (inactive) | > 100 µM (inactive) | > 100 µM (inactive) | > 100 µM (inactive) | > 100 µM (inactive) | – | > 100 µM (inactive) | > 100 µM (inactive) | > 100 µM (inactive) | – | – | > 100 µM (inactive) | > 100 µM (inactive) | > 100 µM (inactive) | > 100 µM (inactive)
8 | COC(=O)C1=C(c2ccc3c(c2)OCO3)OC(c2cc(OC)c(OC)c(OC)c2)C1 (configuration not stated) | > 100 µM (inactive) | 8.87 µM (inactive) | – | 2.72 µM (inactive) | 2.88 µM (inactive) | 8.26 µM (inactive) | 5.68 µM (inactive) | 2.81 µM (inactive) | 5.75 µM (inactive) | > 100 µM (inactive) | – | 4.83 µM (inactive) | 3.49 µM (inactive) | 4.5 µM (inactive) | 31.6 µM (inactive) | 0.667 µM (active) | –
9 | O=[N+]([O-])c1ccc(C2=Nc3ccccc3[S+]([O-])C(c3ccccc3)C2)cc1 (configuration not stated) | 26.7 µM (inactive) | 5.56 µM (inactive) | 34.7 µM (inactive) | 19 µM (inactive) | – | 16.7 µM (inactive) | 15.2 µM (inactive) | 14.9 µM (inactive) | – | 20 µM (inactive) | 16.9 µM (inactive) | 20.1 µM (inactive) | 24.5 µM (inactive) | 23.6 µM (inactive) | 27.9 µM (inactive) | – | 16.7 µM (inactive)
10 | O=C(c1ccccc1)c1ccc2cccc(O)c2n1 | 52.4 µM (inactive) | 10.6 µM (inactive) | 47.6 µM (inactive) | 30.5 µM (inactive) | 6.14 µM (inactive) | 34.4 µM (inactive) | 11.9 µM (inactive) | 16.4 µM (inactive) | – | 29.3 µM (inactive) | – | 67.8 µM (inactive) | – | 38.8 µM (inactive) | 27.5 µM (inactive) | 15.4 µM (inactive) | 8.38 µM (inactive)

— ChEMBL document CHEMBL1201862, “PubChem BioAssay data set” (2004)
